Here are results for 31 compounds from US20070219214A1, “Dual NK2/NK3-antagonists, pharmaceutical compositions comprising them, and processes for their preparation” (Solvay pharmaceuticals GmbH, priority 2006, published 2007).

In one assay the target is T1, human NK3 receptor (Homo sapiens, UniProt P29371).
T1 sequence (P29371 1-465): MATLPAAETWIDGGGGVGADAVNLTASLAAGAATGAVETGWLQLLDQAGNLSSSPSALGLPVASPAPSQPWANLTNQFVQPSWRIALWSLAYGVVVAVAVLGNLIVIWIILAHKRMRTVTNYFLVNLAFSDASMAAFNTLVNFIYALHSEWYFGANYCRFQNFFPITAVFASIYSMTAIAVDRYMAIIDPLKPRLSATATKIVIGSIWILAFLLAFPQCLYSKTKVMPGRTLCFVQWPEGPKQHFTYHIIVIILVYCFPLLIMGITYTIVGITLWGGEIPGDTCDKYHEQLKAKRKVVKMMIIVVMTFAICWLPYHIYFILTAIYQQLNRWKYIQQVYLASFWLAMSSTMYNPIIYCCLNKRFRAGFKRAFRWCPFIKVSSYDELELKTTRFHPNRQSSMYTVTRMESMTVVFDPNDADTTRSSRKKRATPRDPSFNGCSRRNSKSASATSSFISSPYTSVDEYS
The assay can be described thus: Binding potency of the test substances to NK3-receptors in vitro ([3H]-SR 142801 displacement). On the set-up: expressed in transfected cells; host or cells: CHO cells (membrane preparation). The conditions noted are these: human NK3-receptor in CHO cell membranes, [3H]-SR 142801 (osanetant), average of at least three measurements; for Ki: read-out: pKi, binding potency to NK3-receptors (converted). The source says: 3. Determination of the Binding Potency of the Test Substances to NK3-Receptors in Vitro
The affinity of test compounds for NK3-receptors can be determined by measuring the ability of the test compound to displace a radiolabeled ligand from its specific binding site.
(§1) The radiolabel used in this assay is [^3H]-SR 142801 (osanetant). Receptors were obtained from membrane preparations of CHO-cells (Chinese Hamster Ovary cells), in which the human NK3-receptor was stably expressed. Membranes were incubated with [^3H]-osanetant in the absence or presence of test compounds at different concentrations, diluted in a buffer system. Separation of bound radioactivity from free radioactivity was done by filtration through glass fiber filters (Packard GF/B) with several washings with ice-cold buffer solution. Bound radioactivity was measured with a liquid scintillation counter (total binding). Unspecific binding was determined by incubation with an excess (1 μmol/l) of unlabeled osanetant. Specific binding is obtained by subtracting the unspecific binding from the total binding.
Radioactivity of the specific binding was plotted against the concentration of the test compound and IC50 values, i.e. the concentration of test compound by which 50% of the radioligand is displaced, were calculated. The inhibition constant (Ki) was calculated according to the Cheng-Prusoff equation, and listed as its negative logarithmic value (pKi) The pKi value describes the potency of a test compound to bind to a receptor.
(§2) The average result of all measurements is listed above.

Another assay concerns the target T2, human NK2-receptor (Homo sapiens, UniProt P21452).
T2 sequence (P21452 1-398): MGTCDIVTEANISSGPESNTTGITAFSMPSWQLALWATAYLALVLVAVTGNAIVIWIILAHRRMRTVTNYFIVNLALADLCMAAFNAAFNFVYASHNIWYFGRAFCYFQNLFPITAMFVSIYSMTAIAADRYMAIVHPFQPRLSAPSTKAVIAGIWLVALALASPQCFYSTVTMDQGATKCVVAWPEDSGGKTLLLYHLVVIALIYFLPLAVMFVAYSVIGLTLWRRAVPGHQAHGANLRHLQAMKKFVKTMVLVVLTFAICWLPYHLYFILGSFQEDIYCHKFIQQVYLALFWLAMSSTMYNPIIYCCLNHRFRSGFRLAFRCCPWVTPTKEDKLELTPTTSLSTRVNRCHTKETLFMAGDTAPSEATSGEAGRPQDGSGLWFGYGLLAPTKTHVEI
Description: Binding potency of the test substances to NK2-receptors in vitro ([3H]-SR 48968 displacement). Particulars: human NK2-receptor in CHO cell membranes, [3H]-SR 48968 (saredutant); average of at least three measurements; read-out: pKi, binding potency to NK2-receptors (converted). More on the design: expressed in transfected cells; host or cells: CHO cells (membrane preparation).
Text: 2. Determination of the Binding Potency of the Test Substances to NK2-Receptors in Vitro
The affinity of test compounds for NK2-receptors can be determined by measuring the ability of the test compound to displace a radiolabeled ligand from its specific binding site.
as §1, with “48968 (saredutant).” for “142801 (osanetant).”, “NK2-receptor” for “NK3-receptor”, “[^3H]-saredutant” for “[^3H]-osanetant”, “(0.1” for “(1”, “saredutant.” for “osanetant.”
Radioactivity of the specific binding was plotted against the concentration of the test compound and IC50 values, i.e. the concentration of test compound by which 50% of the radioligand is displaced, were calculated. The inhibition constant (Ki) was calculated according to the Cheng-Prusoff equation, and listed as its negative logarithmic value (pKi). The pKi value describes the potency of a test compound to bind to a receptor.
as §2

Turning to `CN(C)C(=O)C1(N2CCCCC2)CCN(CCC(CN(C)C(=O)c2ccc(C(F)(F)F)cc2)c2ccc(Cl)c(Cl)c2)CC1` (stereo not shown) [compound 86], the figures for the Ki at human NK3 receptor and on human NK2-receptor were 0.0631 µM and 0.0126 µM, respectively.
Consider `CN(C)C(=O)C1(N2CCCCC2)CCN(CCC(CN(C)C(=O)Cc2ccc(-c3ccccc3)cc2)c2ccc(Cl)c(Cl)c2)CC1` (stereo not shown) [compound 33], for which the values for the Ki at human NK3 receptor and at human NK2-receptor were 0.0316 µM and 0.0794 µM, respectively.
In the case of `CN(C)C(=O)C1(N2CCCCC2)CCN(CCC(CN(C)C(=O)CC(c2ccccc2)c2ccccc2)c2ccc(Cl)c(Cl)c2)CC1` (stereo not shown) [compound 28], the Ki on human NK2-receptor was 0.02 µM.
For the compound `CN(C)C(=O)C1(N2CCCCC2)CCN(CCC(CN(C)C(=O)c2ccc(Cl)c(Cl)c2)c2ccc(Cl)c(Cl)c2)CC1` (stereo not shown) [compound 81], the Ki at human NK3 receptor was 0.0794 µM; on human NK2-receptor, 0.0126 µM.
The matching figures for `CN(C)C(=O)C1(N2CCCCC2)CCN(CCC(CN(C)C(=O)c2ccc(Cl)c(S(N)(=O)=O)c2)c2ccc(Cl)c(Cl)c2)CC1` (stereo not shown) [compound 47]: 0.02 µM and 0.00316 µM.
For `CN(C)C(=O)C1(N2CCCCC2)CCN(CCC(CN(C)C(=O)C2CC2c2ccccc2)c2ccc(Cl)c(Cl)c2)CC1` (stereo not shown) [compound 90], the Ki at human NK3 receptor was 0.0794 µM; at human NK2-receptor it was 0.0126 µM.
As to `CN(C)C(=O)C1(N2CCCCC2)CCN(CCC(CN(C)C(=O)c2ccc(S(N)(=O)=O)cc2)c2ccc(Cl)c(Cl)c2)CC1` (stereo not shown) [compound 46], the values for the Ki on human NK3 receptor and at human NK2-receptor were 0.0316 µM and 0.00631 µM, respectively.
`CN(C)C(=O)C1(N2CCCCC2)CCN(CCC(CN(C)C(=O)c2cnccn2)c2ccc(Cl)c(Cl)c2)CC1` (stereo not shown) [compound 42]: at human NK2-receptor, the Ki was 0.0158 µM.
`CN(C)C(=O)C1(N2CCCCC2)CCN(CCC(CN(C)C(=O)c2ccc(C#N)cc2)c2ccc(Cl)c(Cl)c2)CC1` (stereo not shown) [compound 91]: the values for the Ki at human NK3 receptor and on human NK2-receptor were 0.0158 µM and 0.00794 µM, respectively.
`CN(C)C(=O)C1(N2CCCCC2)CCN(CCC(CN(C)C(=O)c2cc(=O)c3ccccc3o2)c2ccc(Cl)c(Cl)c2)CC1` (stereo not shown) [compound 45]: the Ki at human NK3 receptor is 0.0126 µM; on human NK2-receptor, 0.00251 µM.
For the compound `CN(C)C(=O)C1(N2CCCCC2)CCN(CCC(CN(C)C(=O)c2cccc3ccccc23)c2ccc(Cl)c(Cl)c2)CC1` (stereo not shown) [compound 92], the Ki at human NK2-receptor is 0.02 µM.
For the compound `CN(C)C(=O)C1(N2CCCCC2)CCN(CCC(CN(C)C(=O)c2ccncc2)c2ccc(Cl)c(Cl)c2)CC1` (stereo not shown) [compound 44], the results for the Ki at human NK3 receptor and at human NK2-receptor were 0.0316 µM and 0.00501 µM, respectively.
Regarding `CN(C[C@@H](CCN1CCC(C(=O)N2CCCC2)(N2CCCCC2)CC1)c1ccc(Cl)c(Cl)c1)C(=O)c1ccccc1` [compound 124, N-{(2S)-2-(3,4-dichlorophenyl)-4-[4′-(pyrrolidin-1-ylcarbonyl)-1,4′-bipiperidin-1′-yl]butyl}-N-methylbenzamide], the Ki at human NK3 receptor is 0.0158 µM; at human NK2-receptor, 0.001 µM.
As to `COc1ccc(C(=O)N(C)CC(CCN2CCC(C(=O)N(C)C)(N3CCCCC3)CC2)c2ccc(Cl)c(Cl)c2)cc1` (stereo not shown) [compound 85], the values for the Ki at human NK3 receptor and on human NK2-receptor were 0.0501 µM and 0.0126 µM, respectively.
As for `CN(C)C(=O)C1(N2CCCCC2)CCN(CCC(CN(C)C(=O)c2ccc(OC(F)(F)F)cc2)c2ccc(Cl)c(Cl)c2)CC1` (stereo not shown) [compound 26], the Ki on human NK3 receptor was 0.0501 µM; on human NK2-receptor it was 0.00501 µM.
Consider `CN(C)C(=O)C1(N2CCCCC2)CCN(CC[C@H](CN(C)C(=O)C(Cc2ccc(-c3ccccc3)cc2)NC(=O)C(C)(C)C)c2ccc(Cl)c(Cl)c2)CC1` (stereo partly shown) [compound 60], for which the “pKi, binding potency to NK3-receptors” value on human NK3 receptor stood at 7.2.
On to `CN(C)C(=O)C1(N2CCCCC2)CCN(CCC(CN(C)C(=O)c2c(-c3ccccc3)oc3ccccc3c2=O)c2ccc(Cl)c(Cl)c2)CC1` (stereo not shown) [compound 21], for which the Ki is 0.0631 µM at human NK3 receptor and 0.0126 µM on human NK2-receptor.
For the compound `CN(C)C(=O)C1(N2CCCCC2)CCN(CCC(CN(C)C(=O)c2ccccc2C(F)(F)F)c2ccc(Cl)c(Cl)c2)CC1` (stereo not shown) [compound 77], the Ki on human NK3 receptor was 0.0794 µM; at human NK2-receptor it was 0.00316 µM.
The matching figures for `CN(C)C(=O)C1(N2CCCCC2)CCN(CCC(CN(C)C(=O)c2ccc(Cl)cc2Cl)c2ccc(Cl)c(Cl)c2)CC1` (stereo not shown) [compound 75]: 0.0398 µM and 0.00501 µM.
Turning to `CN(C)C(=O)C1(N2CCCCC2)CCN(CCC(CN(C)C(=O)c2ccccc2F)c2ccc(Cl)c(Cl)c2)CC1` (stereo not shown) [compound 72], the Ki is 0.0398 µM on human NK3 receptor and 0.00316 µM on human NK2-receptor.
On to `CN(C)C(=O)C1(N2CCCCC2)CCN(CCC(CN(C)C(=O)CCc2ccc(O)cc2)c2ccc(Cl)c(Cl)c2)CC1` (stereo not shown) [compound 29], for which the Ki at human NK3 receptor was 0.0501 µM; at human NK2-receptor, 0.00251 µM.
`CN(C)C(=O)C1(N2CCCCC2)CCN(CCC(CN(C)C(=O)c2c(Cl)cccc2Cl)c2ccc(Cl)c(Cl)c2)CC1` (stereo not shown) [compound 76]: the Ki on human NK3 receptor is 0.0501 µM; on human NK2-receptor, 0.0158 µM.
As to `CCN(C)C(=O)C1(N2CCCCC2)CCN(CC[C@H](CN(C)C(=O)c2ccccc2)c2ccc(Cl)c(Cl)c2)CC1` [compound 95, 1′-[(3S)-4-[benzoyl(methyl)amino]-3-(3,4-dichlorophenyl)butyl]-N-ethyl-N-methyl-1,4′-bipiperidine-4′-carboxamide], on human NK2-receptor, the Ki was not above 0.01 µM.
`CSc1ncc(C(=O)N(C)CC(CCN2CCC(C(=O)N(C)C)(N3CCCCC3)CC2)c2ccc(Cl)c(Cl)c2)n1Cc1ccccc1` (stereo not shown) [compound 20]: the Ki at human NK2-receptor was 0.0251 µM.
In the case of `CN(C)C(=O)C1(N2CCCCC2)CCN(CCC(CN(C)C(=O)c2ccc(-c3ccccc3)cc2)c2ccc(Cl)c(Cl)c2)CC1` (stereo not shown) [compound 27], the Ki at human NK2-receptor was 0.0158 µM.
In the case of `CN(C)C(=O)C1(N2CCCCC2)CCN(CCC(CN(C)C(=O)c2ccc(NC(=O)OC(C)(C)C)cc2)c2ccc(Cl)c(Cl)c2)CC1` (stereo not shown) [compound 54], the Ki on human NK3 receptor is 0.00631 µM.
On to `CN(C)C(=O)C1(N2CCCCC2)CCN(CCC(CN(C)C(=O)Cc2cc(O)nc(O)n2)c2ccc(Cl)c(Cl)c2)CC1` (stereo not shown) [compound 57], for which the Ki at human NK3 receptor was 0.0631 µM.
Turning to `CN(C)C(=O)C1(N2CCCCC2)CCN(CCC(CN(C)C(=O)c2ccc[nH]2)c2ccc(Cl)c(Cl)c2)CC1` (stereo not shown) [compound 35], at human NK2-receptor, the Ki is 0.00316 µM.
The same measure, in the same setting: under `CN(C)C(=O)C1CCCCN1C1CCN(CC[C@H](CN(C)C(=O)c2ccccc2)c2ccc(Cl)c(Cl)c2)CC1` (stereo partly drawn) [compound 100, 1′-[(3S)-4-[benzoyl(methyl)amino]-3-(3,4-dichlorophenyl)-butyl]-N,N-dimethyl-1,4′-bipiperidine-2-carboxamide] stands not above 0.01 µM.
For `COc1ccc(-c2ocnc2C(=O)N(C)CC(CCN2CCC(C(=O)N(C)C)(N3CCCCC3)CC2)c2ccc(Cl)c(Cl)c2)cc1` (stereo not shown) [compound 66], the Ki on human NK3 receptor was 0.02 µM.
Take `CN(C)C(=O)C1CCCCN1C1CCN(CC[C@H](CN(C)C(=O)c2ccccc2)c2ccc(Cl)c(Cl)c2)CC1` (stereo partly shown) [compound 100]: at human NK2-receptor, the Ki is 0.00316 µM.
